Data as given in patent publication US20240051952A1, “HMOX1 INDUCERS” (Mitobridge Inc., priority 2019, published 2024).

Test system: Human Heme Oxygenase-1 (HMOX-1)
Assay: ELISA assay to measure human heme oxygenase-1 (HMOX-1) in HepG2 lysate
Format: cell-based
Details: for Maximum Fold induction: fold change of human HMOX1 protein levels relative to DMSO control, HepG2
Procedure: Example 143. ELISA Assay to Measure Human Heme Oxygenase-1 (HMOX-1) in HepG2 lysate
Reagents and Technical Notes:
ELISA capture antibody, standard HO-1, detection antibody and streptavidin HRP were supplied in the DuoSet IC Human total HO-1 ELISA from R&D systems (DYC3776-2). The substrate cocktail was KPL LumiGLO reserve Chemiluminescent Substrate (54-71-00). PBS was Corning Cellgro Cell Culture (21-040-CV). 10×PBS+0.05% tween20 (PBST) was from KPL.
All incubations of the plate were at room temperature (20° C.) in a closed drawer.
The ELISA plate was processed manually. All loadings were with a multichannel pipet. Plates were emptied by shaking into the sink and tapping onto paper towels to remove any remaining reagent. Plate washing was accomplished by loading all wells with PBS+0.05% tween20 (PBST) using a squirt bottle, shaking the PBST out and tapping the plate onto paper towels.
Preparation of the ELISA Plate: • 1. anti-HO-1 capture antibody was 1440 μg/ml after reconstitution in PBS. This antibody was diluted to 8 μg/ml in PBS and 50 μl per well was added to a 384 well greiner “lumitrac 200” plate. Incubated overnight. • 2. The plate was emptied and 100 μl PBS+1% BSA added to all wells. Incubated 90 minutes at room temperature.
Preparation of HepG2 Lysate: • 1. Cells were cultured in a 96-well tissue culture plate washed with PBS and then the plate frozen at −70° C. overnight. Plates were allowed to warm to ice temperature in an ice bucket. 20 μl of PBS, 0.5% Triton X100, 1 mM EDTA with 1×HALT™ protease inhibitors was added to each well and the plates incubated on ice for 1 hour. • 2. The lysates were frozen at −20° C. overnight.
Measurement of HMOX1 (“HO-1”) • 1. In a polypropylene 384 well plate, human HO-1(after reconstitution in PBS+0.5% Triton+1 mM EDTA) was serially diluted from 20 ng/ml 2-fold in PBS+0.5% triton-X100, 1 mM EDTA to make a 12-point standard curve including a zero point. • 2. In a polypropylene 96 well plate, HepG2 lysate was diluted 1 to 20 in Diluent #4 from DUOSET kit in which the assay standard is also diluted. • 3. The PBS+1% BSA was emptied from the ELISA plate and 30 μl of all samples and standards were added (duplicates recommended). The plate was incubated 90 minutes. • 4. Emptied plate and washed 4 times with PBST. • 5. Diluted HO-1 detection antibody to 200 ng/ml in PBS+1% BSA and added 30 μl to all wells. Incubated 90 minutes. • 6. Emptied plate and washed 4 times with PBST. • 7. Added 30 μl streptavidin HRP at 1/200 in PBS+1% BSA (stock streptavidin concentration not specified) to all wells. Incubated 30 minutes. • 8. Emptied plate and washed 4 times with PBST. • 9. Diluted Lumiglo reserve reagent two parts buffer to one part lumiglo substrate. Added 30 μl to all wells. Incubated 5 minutes. • 10. Measured chemiluminescence on spectramax M5 using 150 ms integration.
Table 1 below lists EC50 and fold changes of human HMOX1 protein levels relative to DMSO control upon treatment with representative compounds.

| Maximum Fold induction | SMILES | EC50 (human HMOX1 protein in HepG2 lysate, ELISA, * = average of 2 or more EC50 determinations, NA = Not Active) |
| --- | --- | --- |
| 29-38 | Cn1c(Nc2nc3ccc(OC(F)(F)F)cc3o2)nc2cc(C(=O)NCCO)ccc21 [Example 53, N-(2-hydroxyethyl)-1-methyl-2-((6-(trifluoromethoxy)benzo[d]oxazol-2-yl)amino)-1H-benzo[d]imidazole-5-carboxamide] | – |
| 31-37 | Cn1c(Nc2nc3ccc(OC(F)(F)F)cc3o2)nc2cc(C(=O)NCCS(C)(=O)=O)ccc21 [Example 54, 1-methyl-N-(2-(methylsulfonyl)ethyl)-2-((6-(trifluoromethoxy)benzo[d]oxazol-2-yl)amino)-1H-benzo[d]imidazole-5-carboxamide] | – |
| 34-40 | COCCOc1ccc2nc(Nc3nc4cc(C(=O)NCCO)ccc4n3C)oc2c1 [Example 57, N-(2-hydroxyethyl)-2-((6-(2-methoxyethoxy)benzo[d]oxazol-2-yl)amino)-1-methyl-1H-benzo[d]imidazole-5-carboxamide] | – |
| 41-60 | COCCOc1ccc2nc(Nc3nc4cc(C(=O)NCCOCCO)ccc4n3C)oc2c1 [Example 58, N-(2-(2-hydroxyethoxy)ethyl)-2-((6-(2-methoxyethoxy)benzo[d]oxazol-2-yl)amino)-1-methyl-1H-benzo[d]imidazole-5-carboxamide] | – |
| 30 | CC(C)c1ccc2nc(Nc3nc4cc(C(=O)O)ccc4n3C)oc2c1 [Example 59, 2-((6-isopropylbenzo[d]oxazol-2-yl)amino)-1-methyl-1H-benzo[d]imidazole-5-carboxylic acid] | – |
| 42-56 | COCCNC(=O)c1ccc2c(c1)nc(Nc1nc3ccc(C(C)C)cc3o1)n2C [Example 60, 2-((6-isopropylbenzo[d]oxazol-2-yl)amino)-N-(2-methoxyethyl)-1-methyl-1H-benzo[d]imidazole-5-carboxamide] | – |
| 60 | CC(C)c1ccc2nc(Nc3nc4cc(C(=O)NCCO)ccc4n3C)oc2c1 [Example 61, N-(2-hydroxyethyl)-2-((6-isopropylbenzo[d]oxazol-2-yl)amino)-1-methyl-1H-benzo[d]imidazole-5-carboxamide] | – |
| 15-24 | Cn1c(Nc2nc3ccc(OC(F)F)cc3o2)nc2cc(C(=O)O)ccc21 [Example 62, 2-((6-(difluoromethoxy)benzo[d]oxazol-2-yl)amino)-1-methyl-1H-benzo[d]imidazole-5-carboxylic acid] | – |
| 11-15 | COCCNC(=O)c1ccc2c(c1)nc(Nc1nc3ccc(OC(F)F)cc3o1)n2C [Example 63, 2-((6-(difluoromethoxy)benzo[d]oxazol-2-yl)amino)-N-(2-methoxyethyl)-1-methyl-1H-benzo[d]imidazole-5-carboxamide] | – |
| 11-18 | Cn1c(Nc2nc3ccc(OC(F)F)cc3o2)nc2cc(C(=O)NCCO)ccc21 [Example 64, 2-((6-(difluoromethoxy)benzo[d]oxazol-2-yl)amino)-N-(2-hydroxyethyl)-1-methyl-1H-benzo[d]imidazole-5-carboxamide] | – |
| 15-42 | COCCNC(=O)c1ccc2c(c1)nc(Nc1nc3cc(C)ccc3o1)n2C [Example 65, N-(2-methoxyethyl)-1-methyl-2-((5-methylbenzo[d]oxazol-2-yl)amino)-1H-benzo[d]imidazole-5-carboxamide] | – |
| 19-22 | Cn1c(Nc2nc3cc(F)ccc3o2)nc2cc(C(=O)O)ccc21 [Example 66, 2-((5-fluorobenzo[d]oxazol-2-yl)amino)-1-methyl-1H-benzo[d]imidazole-5-carboxylic acid] | – |
| 18-56 | COCCNC(=O)c1ccc2c(c1)nc(Nc1nc3cc(F)ccc3o1)n2C [Example 67, 2-((5-fluorobenzo[d]oxazol-2-yl)amino)-N-(2-methoxyethyl)-1-methyl-1H-benzo[d]imidazole-5-carboxamide] | – |
| 16-21 | Cn1c(Nc2nc3ccc(F)cc3o2)nc2cc(C(=O)O)ccc21 [Example 68, 2-((6-fluorobenzo[d]oxazol-2-yl)amino)-1-methyl-1H-benzo[d]imidazole-5-carboxylic acid] | – |
| 13-36 | COCCNC(=O)c1ccc2c(c1)nc(Nc1nc3ccc(F)cc3o1)n2C [Example 69, 2-((6-fluorobenzo[d]oxazol-2-yl)amino)-N-(2-methoxyethyl)-1-methyl-1H-benzo[d]imidazole-5-carboxamide] | – |
| 8-11 | Cn1c(Nc2nc3ccc(OC(F)(F)F)cc3o2)nc2cc(C(=O)O)c(F)cc21 [Example 70, 6-fluoro-1-methyl-2-((6-(trifluoromethoxy)benzo[d]oxazol-2-yl)amino)-1H-benzo[d]imidazole-5-carboxylic acid] | – |
| 8-12 | COCCNC(=O)c1cc2nc(Nc3nc4ccc(OC(F)(F)F)cc4o3)n(C)c2cc1F [Example 71, 6-fluoro-N-(2-methoxyethyl)-1-methyl-2-((6-(trifluoromethoxy)benzo[d]oxazol-2-yl)amino)-1H-benzo[d]imidazole-5-carboxamide] | – |
| 31-72 | Cn1c(Nc2nc3ccccc3o2)nc2cc(C(=O)NCCOCCO)c(F)cc21 [Example 72, 2-(benzo[d]oxazol-2-ylamino)-6-fluoro-N-(2-(2-hydroxyethoxy)ethyl)-1-methyl-1H-benzo[d]imidazole-5-carboxamide] | – |
| 8-12 | Cn1c(Nc2nc3cc(F)ccc3[nH]2)nc2cc(C(=O)O)ccc21 [Example 73, 2-((5-fluoro-1H-benzo[d]imidazol-2-yl)amino)-1-methyl-1H-benzo[d]imidazole-5-carboxylic acid] | – |
| 17-28 | CN(C)CCn1c(Nc2nc3ccc(OC(F)(F)F)cc3o2)nc2cc(C(=O)O)ccc21 [Example 74, 1-(2-(dimethylamino)ethyl)-2-((6-(trifluoromethoxy)benzo[d]oxazol-2-yl)amino)-1H-benzo[d]imidazole-5-carboxylic acid] | – |
| 15-25 | COCCn1c(Nc2nc3cc(OC(F)(F)F)ccc3[nH]2)nc2cc(C(=O)O)ccc21 [Example 75, 1-(2-methoxyethyl)-2-((5-(trifluoromethoxy)-1H-benzo[d]imidazol-2-yl)amino)-1H-benzo[d]imidazole-5-carboxylic acid] | – |
| 18-20 | COCCNC(=O)c1ccc2c(c1)nc(Nc1nc3cc(OC(F)(F)F)ccc3[nH]1)n2CCOC [Example 76, N,1-bis(2-methoxyethyl)-2-((5-(trifluoromethoxy)-1H-benzo[d]imidazol-2-yl)amino)-1H-benzo[d]imidazole-5-carboxamide] | – |
| 27-28 | COCCn1c(Nc2nc3ccc(OC(F)(F)F)cc3o2)nc2cc(C(=O)O)ccc21 [Example 77, 1-(2-methoxyethyl)-2-((6-(trifluoromethoxy)benzo[d]oxazol-2-yl)amino)-1H-benzo[d]imidazole-5-carboxylic acid] | – |
| 21-23 | COCCNC(=O)c1ccc2c(c1)nc(Nc1nc3ccc(OC(F)(F)F)cc3o1)n2CCOC [Example 78, N,1-bis(2-methoxyethyl)-2-((6-(trifluoromethoxy)benzo[d]oxazol-2-yl)amino)-1H-benzo[d]imidazole-5-carboxamide] | – |
| 27-51 | O=C(O)c1ccc2c(c1)nc(Nc1nc3ccc(OC(F)(F)F)cc3o1)n2C1CCOCC1 [Example 79, 1-(tetrahydro-2H-pyran-4-yl)-2-((6-(trifluoromethoxy)benzo[d]oxazol-2-yl)amino)-1H-benzo[d]imidazole-5-carboxylic acid] | – |
| 22-23 | COCCNC(=O)c1ccc2c(c1)nc(Nc1nc3ccc(OC(F)(F)F)cc3o1)n2C1CCOCC1 [Example 80, N-(2-methoxyethyl)-1-(tetrahydro-2H-pyran-4-yl)-2-((6-(trifluoromethoxy)benzo[d]oxazol-2-yl)amino)-1H-benzo[d]imidazole-5-carboxamide] | – |

| SMILES | Maximum Fold induction | EC50 (human HMOX1 protein in HepG2 lysate, ELISA, * = average of 2 or more EC50 determinations, NA = Not Active) |
| --- | --- | --- |
| COCCOc1ccc2nc(Nc3nc4cc(C(=O)O)ccc4n3C)oc2c1 [Example 55, 2-((6-(2-methoxyethoxy)benzo[d]oxazol-2-yl)amino)-1-methyl-1H-benzo[d]imidazole-5-carboxylic acid] | 15 | 4.5 µM |
